“And” between values parts separate entries of the source, which are not always exact repeats. Equal entries are not always repeated.
How the values were obtained:
BEL-7404 = assay: MTT assay, BEL-7404 cells; format: cell-based, human; settings: 48 h
NCI-H460 = assay: MTT assay, NCI-H460 cells; format: cell-based, human; settings: 48 h
T-24 = assay: MTT assay, T-24 cells; format: cell-based, human; settings: 48 h
[1] = tested on: HL-7702 normal liver cell; assay: MTT assay, HL-7702 normal liver cell; format: cell-based; settings: 48 h, normal liver cell; for inhibitive ratio HL-7702: 20 μmol/L
HepG2 cells [2] = assay: Uptake of metal complexes in HepG2 cells (ICP-MS); format: cell-based, human; settings: HepG2, 2 at 7.0 μM, 3 at […], 8 h
HepG2 cells [3] = assay: Cell cycle analysis by flow cytometry; format: cell-based, human
pBR322 plasmid DNA = assay: Agarose gel electrophoresis assay with pBR322 plasmid DNA; format: biochemical; settings: pBR322 0.5 μg/μL, TBE buffer pH=8.5, 10 to 100 μM
Description: The DNA cleavage activity of 2, 3 and LY were tested by agarose gel electrophoresis assay using pBR322 plasmid DNA (0.5 μg/μL) in TBE buffer (pH=8.5). […] In contrast, under the same experimental conditions, when the concentration of 2 increased from 10 μM to 50 μM, the mobility of supercoiled DNA (form I) was reduced, but the relaxed form (form II) was not observed. When the concentration of 2 increased further to 70 μM, the form II DNA appeared. Almost all supercoiled DNA (form I) changed to relaxed DNA (form II) when the concentration of 2 reached 90 and 100 μM.
RT-qPCR was performed. The threshold cycle (Ct) values approval no. SCXK 2014-0002 and SYXK 2014-0003), […]
were housed at a sterile environment with conditions of […]
than 3 days before used. Complexes and LYwere all […]
is limited in 1% in final working solutions. KM mice. The large concentration of 2 in 10% (v/v) […]
ct-DNA CD spectrum as control.
The HepG2 xenograft mice were induced by
37 °C in the dark for 4 h.
The percent weight loss or gain was calculated […]
imaging system under a UV-Vis transilluminator.. Percent tumour growth inhibition after initiation of treatment with 2 and cisplatin were calculated by TGI= […]
initial for control group).
Animals were supplied by Guangxi Medical
University Laboratory Animal Centre (Guangxi, China, […]

HepG2 = assay: MTT assay, HepG2 cells
caspase-3 in HepG2 cells = assay: Activated caspase-3 by flow cytometry; settings: HepG2, at IC50, 24 h; control 0.0 %
Description: (§1) After treated, the cells were collected, and suspended in h at 37 °C in 5% CO2 incubator. The cells were harvested
(§2) with annexin V-FITC and PI for 1 h at room temperature cytometer equipped. The results were represented as the
(§3) in the dark and immediately analyzed by flow cytometry. percent change on the activity comparing with the control.
(§4) Caspase- 3, -8 and -9 activity determinations by our previously report [3].

caspase-8 in HepG2 cells = assay: Activated caspase-8 by flow cytometry; settings: HepG2, at IC50, 24 h; control 2.1 %
Description: as §1, §2, §3, §4

caspase-9 in HepG2 cells = assay: Activated caspase-9 by flow cytometry; settings: HepG2, at IC50, 24 h; control […]
Description: as §1, §2, §3, §4

[4] = tested on: cell cycle regulatory proteins in HepG2 cells; assay: Western blot of cell cycle regulatory proteins; settings: HepG2, 24 h
Description: HepG2 cells were incubated with 2 and 3 at increasing concentrations for 24 h, and the expression of cell cycle regulatory proteins in the S phase was examined through Western blot analysis.

[5] = MTT, mean ± SD from five independent experiments

COc1cc2ccnc3c2c(c1OC)-c1ccccc1C3=O.COc1cc2ccnc3c2c(c1OC)-c1ccccc1C3=O.COc1cc2ccnc3c2c(c1OC)-c1ccccc1C3=O.ClC(Cl)Cl.ClC(Cl)Cl.ClC(Cl)Cl.[Mn+2].[O-][Cl+3]([O-])([O-])[O-].[O-][Cl+3]([O-])([O-])[O-] [Complex 3, [Mn(LY)3](ClO4)2·3CHCl3]
inhibitive ratio BEL-7404 (BEL-7404; 20 μmol/L): 35.27±1.15%
IC50 (BEL-7404; [5]): 36.2 ± 1.03 µM
inhibitive ratio NCI-H460 (NCI-H460; 20 μmol/L): 54.93±0.86% and 54.93%
IC50 (NCI-H460; [5]): 12.9 ± 3.62 µM
inhibitive ratio T-24 (T-24; 20 μmol/L): 45.42±1.66%
IC50 (T-24; [5]): 15.4 ± 1.81 µM
inhibitive ratio HL-7702 [1]: 32.9%
inhibitive ratio HL-7702 ([1]; listed as 3): 32.97±1.14%
IC50 [1, 5]: 55.4 ± 3.65 µM
distribution of the metal (Rh or Mn) in mitochondrial vs nuclear fraction (HepG2 cells [2]): higher in the mitochondrial fraction than in the nuclear fraction
cell population in S phase (HepG2 cells [3]; HepG2, 28.0 μM, 24 h, control 31.23%): 48.70%
effect on cell cycle progression (HepG2 cells [3]; HepG2, 24 h): significant cell cycle arrest at the S phase
DNA cleavage activity on supercoiled pBR322 DNA (pBR322 plasmid DNA): cleavage of supercoiled DNA was still little
inhibitive ratio Hep-G2 (HepG2; 20 μmol/L, 48 h): 62.99±0.43% and 62.99%
fold increase of cytotoxicity (IC50) comparing with the free LY ligand (HepG2; HepG2 cells): 1.6–3.2 fold
IC50 (HepG2; read-out: IC50 HepG2, MTT, 48 h, mean ± SD from five independent experiments): 14.5 ± 0.69 µM
proportion of activated caspase-3 cells (caspase-3 in HepG2 cells): 18.8%
proportion of activated caspase-8 cells (caspase-8 in HepG2 cells): 12.3%
proportion of activated caspase-9 cells (caspase-9 in HepG2 cells): 17.0%
proliferating cell nuclear antigen (PCNA) level [4]: decreased
expression of Cdk2, p-Cdc25A, p53, p21 and p27 ([4]; increasing concentrations): increased
